This is an account of results in PMC8648660, “Multifunctional thiosemicarbazones targeting sigma receptors: in vitro and in vivo antitumor activities in pancreatic cancer models” (Cellular Oncology, 2021).

Series [1] relates to sigma-1 and sigma-2 receptor subtypes. Also on record: method as in PMID 24106081. Conditions: cited from earlier work.
The test system of a further series is PANC-1 xenografts. The experiment in a line: In vivo xenograft assay, PANC-1. Also on record: species or system mice. Conditions: for tumor growth: gemcitabine 20 mg/kg twice a week.
The next series relates to MiaPaCa2 xenografts. The experiment in a line: In vivo xenograft assay, MiaPaCa2. Conditions: gemcitabine 20 mg/kg twice a week, 15 days. Also on record: species or system mice.
Series [2] can be described thus: Systemic toxicity and hematochemical parameters of treated PANC-1 tumor-bearing mice. Conditions: gemcitabine 20 mg/kg twice a week; mean ± SD.
Method: 2 × 10^5 PANC-1 or Mia-PaCa2 cells were inoculated subcutaneously in the right flank of 6-week old C57BL/6 female nude mice (Charles River Laboratories Italia, Calco), housed (5 per cage) under a 12 h light/dark cycle, with food and drinking water provided ad libitum. Tumor growth was measured daily by caliper, according to the equation (LxW^2)/2, where L = tumor length and W = tumor width. […] Tumor volumes and animal weights were monitored daily. Animals were euthanized at day 18 or 36 after randomization with zolazepam (0.2 ml/kg) and xylazine (16 mg/kg). […] Red blood cell (RBC) count, hemoglobin (Hb), white blood cell (WBC) count, platelet (PLT) count, lactate dehydrogenase (LDH), aspartate aminotransferase (AST), alanine aminotransferase (ALT), alkaline phosphatase (AP), creatinine and creatine phosphokinase (CPK) were measured in blood samples collected immediately after euthanasia, using commercially available kits from Beckman Coulter Inc (Beckman Coulter, Miami, FL, USA).
Blood was collected immediately after euthanasia and analyzed for red blood cells (RBC) count, hemoglobin (Hb), white blood cells (WBC) count, platelets (PLT) count, lactate dehydrogenase (LDH), aspartate aminotransferase (AST), alanine aminotransferase (ALT), alkaline phosphatase (AP), creatinine, creatine phosphokinase (CPK). Data are presented as means ± SD.
A further series concerns KP02 cells. Set-up: method as in PMID 29287249. Conditions: cited from earlier work.
The next series concerns MiaPaCa2 cells. Also on record: method as in PMID 29287249. Conditions: cited from earlier work.
The next series concerns PANC02 cells. Set-up: method as in PMID 29287249. Conditions: cited from earlier work.
The test system of a further series is AspC1 cells. Set-up: method as in PMID 29287249. Conditions: cited from earlier work.
Series [3] relates to GRP78, ATF6, IRE1 and PERK. The experiment in a line: qRT-PCR of ER stress markers in pancreatic cancer cells. Conditions: 50 µM, 2 h. Format: cell-based, human and murine. How it is done:
Total RNA was extracted using a phenol/chloroform method, after which 1 µg RNA was reverse-transcribed using an iScript Reverse Transcription Supermix kit according to the manufacturer’s instructions (Bio-Rad Laboratories). 25 ng cDNA was amplified using 10 µl of an IQ™ SYBR Green Supermix (Bio-Rad Laboratories). Primers were designed using qPrimer Depot software (http://primerdepot.nci.nih.gov/). qRT-PCR was carried out using an iQ^TM5 cycler (Bio-Rad Laboratories). The cycling conditions used were: 30 s at 95 °C, followed by 40 cycles of denaturation (15 s at 95 °C) and annealing/extension (30 s at 60 °C). The same cDNA preparations were used to quantify the expression of genes of interest and that of the housekeeping gene S14, which was used to normalize the gene expression levels. Relative quantitation of each sample was performed using Gene Expression Quantitation software (Bio-Rad Laboratories). The results were expressed in arbitrary units. For each gene, the expression level in untreated cells was arbitrarily set at “1”.

A further series concerns HPDE cells. Set-up: method as in PMID 29287249. Conditions: read-out: Activity EC50, HPDE (normal cells); cited from earlier work.
The next series has as its system BxPC3 cells. Also on record: method as in PMID 29287249. Conditions: cited from earlier work.
A further series deals with PANC-1 cells. Also on record: method as in PMID 29287249. Conditions: cited from earlier work.

Method for MiaPaCa2 xenografts: 2 × 10^5 PANC-1 or Mia-PaCa2 cells were inoculated subcutaneously in the right flank of 6-week old C57BL/6 female nude mice (Charles River Laboratories Italia, Calco), housed (5 per cage) under a 12 h light/dark cycle, with food and drinking water provided ad libitum. Tumor growth was measured daily by caliper, according to the equation (LxW^2)/2, where L = tumor length and W = tumor width. When tumors reached a volume of 100 mm^3, the mice (n = 8/group) were randomized in the following groups and treated daily for 15 days or 30 days intraperitoneally as reported: (1) Vehicle group (100 µl saline solution), (2) FA4^low group (750 nmol FA4 in 100 µl saline solution), (3) FA4^high group (1500 nmol FA4 in 100 µl saline solution) and (4) Gemcitabine group (20 mg/kg gemcitabine, twice a week). Tumor volumes and animal weights were monitored daily. Animals were euthanized at day 18 or 36 after randomization with zolazepam (0.2 ml/kg) and xylazine (16 mg/kg). Next, tumors were excised and paraffin-embedded. […] Quantification of the immunohistochemical analyses was performed using ImageJ software (https://imagej.nih.gov/). The staining intensities were expressed as arbitrary units and considered 1 in the vehicle group.
Method for PANC-1 xenografts: 2 × 10^5 PANC-1 or Mia-PaCa2 cells were inoculated subcutaneously in the right flank of 6-week old C57BL/6 female nude mice (Charles River Laboratories Italia, Calco), housed (5 per cage) under a 12 h light/dark cycle, with food and drinking water provided ad libitum. Tumor growth was measured daily by caliper, according to the equation (LxW^2)/2, where L = tumor length and W = tumor width. When tumors reached a volume of 100 mm^3, the mice (n = 8/group) were randomized in the following groups and treated daily for 15 days or 30 days intraperitoneally as reported: (1) Vehicle group (100 µl saline solution), (2) FA4^low group (750 nmol FA4 in 100 µl saline solution), (3) FA4^high group (1500 nmol FA4 in 100 µl saline solution) and (4) Gemcitabine group (20 mg/kg gemcitabine, twice a week). Tumor volumes and animal weights were monitored daily. Animals were euthanized at day 18 or 36 after randomization with zolazepam (0.2 ml/kg) and xylazine (16 mg/kg). Next, tumors were excised and paraffin-embedded. Sections were immuno-stained for cleaved caspase 3 (Cell Signalling Technology, Danvers, MA, USA) or with an anti-malondialdehyde antibody (Abcam), followed by a peroxidase-conjugated secondary antibody (Dako, Glostrup, Denmark). The sections were examined under a Leica DC100 microscope (Leica, Wetzlar, Germany). Quantification of the immunohistochemical analyses was performed using ImageJ software (https://imagej.nih.gov/). The staining intensities were expressed as arbitrary units and considered 1 in the vehicle group.

In the case of `Fc1ccc(-n2cc(CCCCN3CCC4(CC3)OCc3ccccc34)c3ccccc32)cc1` [siramesine], the “binding to sigma-1 versus sigma-2 receptor subtypes” value in series [1] is “binds equally well to the sigma-1 and sigma-2 receptor subtypes”.

With `Nc1ccn([C@@H]2O[C@H](CO)[C@@H](O)C2(F)F)c(=O)n1` [gemcitabine], the tumor growth result with PANC-1 xenografts (15 days) is “ineffective against this tumor cell line”. Also, the tumor growth result in the series on PANC-1 xenografts (30 days) is given as “not able to significantly reduce tumor growth”. For the same molecule, the “intratumor apoptosis (cleaved caspase 3) and lipid peroxidation” value with PANC-1 xenografts (gemcitabine, 30 days) is reported as “low or undetectable”. For the same molecule, the tumor growth entry with MiaPaCa2 xenografts is listed as “MiaPaCa2 tumors were more sensitive to gemcitabine”. In [2], this molecule yielded an ALT of 36±12 U/l, an AP of 134±43 U/l, an AST of 142±18 U/l and a CPK of 309±32 U/l. In series [2], the Hb is 11.03 ± 1.94 g/dL, the LDH turned out to be 6704±832 U/l, the PLT was 931±165 x 10^3/µl and the RBC is on record as 11.28±0.98 x 10^6/µl. For the same molecule, the WBC in series [2] was 12.18±2.39 x 10^3/µl.

In general, EC50 refers to the concentration needed to bring the measured effect to its halfway point. In the case of `CN(C)C(=S)N/N=C1\C(=O)N(CCCCN2CCN(C3CCCCC3)CC2)c2ccccc21` [PS3, (Z)-2-[1-[4-(4-cyclohexylpiperazin-1-yl)butyl]-2-oxoindolin-3-ylidene]-N,N-dimethylhydrazinecarbothioamide], the 50% effective concentration (EC50) with KP02 cells is 7.32 µM; in the series with MiaPaCa2 cells, 10.1 µM; with PANC02 cells it was 1.17 µM; with AspC1 cells it was 3.86 µM; in the series with HPDE cells it was 5.35 µM; in the series with BxPC3 cells it was 6.15 µM. Further, the EC50 with PANC-1 cells was 8.73 µM. For the same molecule, the “mRNA expression of ER stress markers GRP78, ATF6, IRE1, PERK” value (“mRNA expression” below) in series [3] was “none of the markers was increased in the other cells”.

Consider `COc1cc2c(cc1OC)CN(CCCCN1C(=O)/C(=N\NC(=S)N(C)C)c3ccccc31)CC2` [MLP44, (Z)-2-(1-(4-(6,7-dimethoxy-3,4-dihydroisoquinolin-2(1H)-yl)butyl)-2-oxoindolin-3-ylidene)-N,N-dimethylhydrazinecarbothioamide], for which the concentration for a half-maximal effect (EC50) with KP02 cells is 6.92 µM; with MiaPaCa2 cells it was 14.6 µM; with PANC02 cells it was 1.33 µM; in the series on AspC1 cells, 2.01 µM; with HPDE cells, 9.5 µM; in the series on BxPC3 cells it was 2.34 µM. The EC50 with PANC-1 cells was 14.6 µM. Also, the “mRNA expression” value in series [3] was “none of the markers was increased in the other cells”.

Regarding `CN(C)C(=S)N/N=C1\C(=O)Nc2ccccc21` [ACthio-1, (Z)-N,N-dimethyl-2-(2-oxoindolin-3-ylidene)hydrazinecarbothioamide], the concentration giving a half-maximal response (EC50) is 2.83 µM in the series on KP02 cells; 18.3 µM in the series with MiaPaCa2 cells; 1.21 µM in the series on PANC02 cells; 2.17 µM in the series on AspC1 cells; 10.5 µM with HPDE cells; 2.52 µM in the series on BxPC3 cells. Further, in the series on PANC-1 cells, the concentration for a half-maximal effect (EC50) is > 100 µM. In addition, in series [3], the “mRNA expression” value is given as “none of the markers was increased in the other cells”.
